Test results: US20080293683A1, “Hormone Replacement Therapy” (University of Kansas Medical Center, priority 2007, published 2008)
Where two headings read alike, the source gives them in different places.

Key:
recombinant human ERα = biological target: T1, recombinant human ERα (Homo sapiens, UniProt P03372); test: ERα binding assay: competition of [3H]E2 binding by competing estrogens; conditions: for RBAα % (relative binding affinity for ERα, of E2): calculated against E2 = 100; for RBAα/RBAβ: ratio of relative binding affinities ERα over ERβ; for RBA for ERα, % of E1: relative to E1
T1 construct: purchased PanVera Corporation (Madison, Wis.); host or cells: baculovirus-mediated expression system
T1 sequence (P03372 1-595): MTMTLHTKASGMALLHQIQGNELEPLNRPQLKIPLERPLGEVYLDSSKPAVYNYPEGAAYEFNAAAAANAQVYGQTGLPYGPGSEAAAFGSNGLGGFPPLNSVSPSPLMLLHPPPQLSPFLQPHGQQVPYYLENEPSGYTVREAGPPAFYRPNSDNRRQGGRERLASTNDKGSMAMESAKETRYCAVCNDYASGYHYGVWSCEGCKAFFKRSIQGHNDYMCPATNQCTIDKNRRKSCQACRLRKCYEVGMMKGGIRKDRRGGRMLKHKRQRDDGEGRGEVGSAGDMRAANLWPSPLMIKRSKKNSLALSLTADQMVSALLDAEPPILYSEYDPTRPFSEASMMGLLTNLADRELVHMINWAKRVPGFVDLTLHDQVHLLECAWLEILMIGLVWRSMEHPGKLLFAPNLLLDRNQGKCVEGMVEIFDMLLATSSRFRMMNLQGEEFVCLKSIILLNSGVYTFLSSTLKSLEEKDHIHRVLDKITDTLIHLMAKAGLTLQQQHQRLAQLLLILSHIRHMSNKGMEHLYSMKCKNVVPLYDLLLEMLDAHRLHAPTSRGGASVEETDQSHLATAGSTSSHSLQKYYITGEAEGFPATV
Description: (§1) The recombinant human ERα and ERβ proteins and bovine serum albumin (BSA) were obtained from PanVera Corporation (Madison, Wis.). According to the supplier, the recombinant human ERα and ERβ were produced in a baculovirus-mediated expression system, and they were soluble and functionally active, with post-translational modifications similar to those found in mammalian cells. See Reid et al., Human estrogen receptor-α: Regulation by synthesis, modification and degradation, Cell. Mol. Life.
(§2) The following buffer solutions were used in the ER binding assays, and they were prepared beforehand and stored at 4° C. The binding buffer consisted of 10% glycerol, 2 mM dithiothreitol, 1 mg/mL BSA and 10 mM Tris-HCl at pH 7.5. The ERα washing buffer contained 40 mM Tris-HCl and 100 mM KCl (pH 7.4), but the ERG washing buffer contained only 40 mM Tris-HCl (adjusted to pH 7.4). The 50% hydroxylapatite slurry was prepared first by vigorously mixing 10 g hydroxylapatite with 60 mL of the Tris-HCl solution (50 mM, pH 7.4). Hydroxylapatite was then allowed to settle for 20 minutes at room temperature, and the supernatant was decanted. The above procedures were repeated 10 times, and afterwards hydroxylapatite was kept in the 50 mM Tris-HCl solution overnight at 4° C. Hydroxylapatite slurry was then adjusted to an approximate final concentration of 50% (v/v) using the same Tris-HCl solution and stored at 4° C., and the slurry was stable for up to several months.
(§3) Note that all of the estrogens were initially dissolved in pure ethanol to a stock concentration of 1 mM, and then further diluted to 100 μM with 20% aqueous ethanol. […] Immediately before the addition of the ERα or ERβ protein, it was diluted in the binding buffer and mixed gently with repetitive pipettings. […] The incubation mixture was then mixed gently and thoroughly with repetitive pipettings. […] The binding mixture was incubated at room temperature for two hours. At the end of the incubation, 100 μL of the hydroxylapatite slurry was added to each tube and the tubes were incubated on ice for 15 minutes with 3 times of brief vortexing. An aliquot (1 mL) of the appropriate washing buffer was added, mixed, and centrifuged at 10,000 g for five minutes, and the supernatants were discarded. This wash step was repeated twice. Hydroxylapatite pellets were then resuspended in 200 μL ethanol (followed by another rinse with 200 μL ethanol), and then the content was transferred to scintillation vials (containing 4 mL of the scintillation fluid) for measurement of ^3H-radioactivity with a liquid scintillation counter (Packard Tri-CARB 2900 TR; Downers Grove, Ill.).
(§4) To calculate the specific binding (pmol/mL) of the human ERα or ERβ protein at each concentration point, the following equation was used: […]
(§5) When a lower radioligand concentration is used, the corresponding IC50 value will also be relatively lower, but when the radioligand concentration increases, the corresponding IC50 value will also increase. […] Since the RBA value is a parameter that is independent of the radioligand concentration used, we thus have placed more emphasis on the RBA values instead of the absolute IC50 values in interpreting the physiological meanings of the data from in vitro receptor competition assays.

recombinant human ERβ = biological target: T2, recombinant human ERβ (Homo sapiens, UniProt Q92731); test: ERβ binding assay: competition of [3H]E2 binding by competing estrogens; conditions: for RBAβ (%) (relative binding affinity for ERβ, of E2): calculated against E2 = 100; for binding affinity for ERβ (in words): concentrations up to 1000 nM
T2 construct: purchased PanVera Corporation (Madison, Wis.); host or cells: baculovirus-mediated expression system
Description: as §1, §2, §3, §4, §5

postmenopausal person = conditions: singular use; cited from earlier work

T2 sequence (Q92731 whole entry): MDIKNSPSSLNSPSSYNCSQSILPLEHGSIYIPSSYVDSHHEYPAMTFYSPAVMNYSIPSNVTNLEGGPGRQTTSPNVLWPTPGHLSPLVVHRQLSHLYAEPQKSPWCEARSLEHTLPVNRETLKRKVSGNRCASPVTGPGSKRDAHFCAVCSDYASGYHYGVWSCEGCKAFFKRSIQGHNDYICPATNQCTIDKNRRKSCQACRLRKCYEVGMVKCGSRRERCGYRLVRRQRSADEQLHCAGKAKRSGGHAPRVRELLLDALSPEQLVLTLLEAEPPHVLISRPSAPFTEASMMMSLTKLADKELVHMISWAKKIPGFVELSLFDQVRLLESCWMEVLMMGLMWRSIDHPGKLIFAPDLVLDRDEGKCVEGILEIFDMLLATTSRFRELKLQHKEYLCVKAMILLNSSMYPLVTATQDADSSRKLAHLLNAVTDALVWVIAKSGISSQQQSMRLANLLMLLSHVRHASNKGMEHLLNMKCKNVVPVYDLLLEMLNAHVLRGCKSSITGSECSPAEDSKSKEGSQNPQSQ

Compound	RBAα % (relative binding affinity for ERα, of E2) (recombinant human ERα) [%]	RBAα/RBAβ (recombinant human ERα)	IC50 (recombinant human ERα; read-out: ERα IC50) [nM]	RBAβ (%) (relative binding affinity for ERβ, of E2) (recombinant human ERβ)	IC50 (recombinant human ERβ; read-out: ERβ IC50) [nM]	also measured
C[C@]12CC[C@@H]3c4ccc(O)cc4CC[C@H]3[C@@H]1[C@@H](O)[C@@H](O)[C@@H]2O [15α-OH-E3, 15α-Hydroxyestriol (Estetrol)]	4	1.3	282	3	355	RBAα/RBAβ (recombinant human ERα; listed as estetrol): about 1.3
C[C@@]12C=CC[C@H]1[C@@H]1CCc3cc(O)ccc3[C@H]1CC2 [16-Estratetraen, 1,3,5(10),16-Estratetraen-3-ol]	35	0.4	31.6	80	14.1	–
CC12CCC3c4ccc(O)cc4CCC3C1CC(=O)C2=O (centres unmarked) [16-Keto-E1, 16-Ketoestrone]	2	0.2	631	10	89.1	RBA for ERα, % of E1 (recombinant human ERα): 18%; RBA for ERβ, % of E1 (recombinant human ERβ; relative to E1): 501%; binding affinity for ERβ, fold higher than E1 (recombinant human ERβ; relative to E1): five-fold higher; relative preference for ERβ over ERα, times higher than E1 (recombinant human ERβ; relative to E1): approximately 25 times
C[C@]12CC[C@@H]3c4ccc(O)cc4CC[C@H]3[C@@H]1CC(=O)[C@@H]2O [16-Keto-E2, 16-Ketoestradiol]	1	0.1	112	18	50.1	–
C[C@]12CC[C@@H]3c4ccc(O)cc4CC[C@H]3[C@@H]1C[C@@H](O)C2=O [16α-OH-E1, 16α-Hydroxyestrone]	–	0.1	–	35	–	IC50 (recombinant human ERα): 56.2 nM; binding affinity for ERα (in words) (recombinant human ERα): twice as high as that of E1; IC50 (recombinant human ERβ): 25.1 nM; binding affinity for ERβ, fold higher than E1 (recombinant human ERβ; relative to E1): 18 fold
CC12CCCC1C1CCc3cc(O)ccc3C1CC2 (centres unmarked) [17-Desoxy-E2, 17-Desoxyestradiol]	16	0.4	70.8	45	19.9	–
C[C@]12CCc3c(ccc4cc(O)ccc34)[C@@H]1CCC2=O [D-Equilenin]	2	0.3	–	7	–	IC50 (recombinant human ERα): 562 nM; ERα RBA (recombinant human ERα; Table 4, Premarin components): 2; Ratio (ERα RBA / ERβ RBA) (recombinant human ERα; Table 4, Premarin components): 0.3; RBA for ERα, % of E1 (recombinant human ERα): 20%; IC50 (recombinant human ERβ): 126 nM; ERβ RBA (recombinant human ERβ; Table 4, Premarin components): 7; RBA for ERβ, % of E1 (recombinant human ERβ; relative to E1): 355%; binding affinity for ERβ, fold higher than E1 (recombinant human ERβ; relative to E1): more than 3 fold
C/C=C(/C(=C/C)c1ccc(O)cc1)c1ccc(O)cc1 [Dienestrol, reference compound]	37	0.7	30.2	56	19.9	–
C[C@]12CC[C@@H]3c4ccc(OS(=O)(=O)O)cc4CC[C@H]3[C@@H]1CC[C@@H]2O [E2-3-sulfate, Estradiol 3-sulfate]	–	–	> 1000	–	> 1000	binding affinity for ERα (in words) (recombinant human ERα; concentrations up to 1000 nM): basically devoid of appreciable binding affinity; binding affinity for ERβ (in words) (recombinant human ERβ): basically devoid of appreciable binding affinity
C[C@]12CC[C@@H]3c4ccc(O)cc4C[C@@H](CCCCCCO)[C@H]3[C@@H]1CC[C@@H]2O [E2-7α-(CH2)6OH, 7α-(6-Hydroxyhexanyl)-17β-estradiol]	27	0.7	41.8	40	22.3	–
O=c1c(-c2ccc(O)cc2)coc2cc(O)cc(O)c12 [Genistein]	–	–	–	–	–	effectiveness as hormone replacement therapy (postmenopausal person): ineffective
CC[C@H](c1ccc(O)cc1)[C@@H](CC)c1ccc(O)cc1 [Hexestrol, reference compound]	31	0.5	36.3	60	18.6	–
O=c1c(O)c(-c2cc(O)c(O)c(O)c2)oc2cc(O)cc(O)c12 [Myricetin, reference compound]	–	–	> 1000	–	> 1000	binding affinity for ERα (in words) (recombinant human ERα; concentrations up to 1000 nM): no appreciable binding affinity; binding affinity for ERβ (in words) (recombinant human ERβ): no appreciable binding affinity
